Experimental data as given in US20080102111A1, “Anticancer Composition for Oral Use Comprising Liposome Containing Phytosterols and Prevention or Treatment for Cancer Using the Liposome” (priority 2005, published 2008).

Tested on: B16BL6 melanoma cells
Experiment: Metastasis-inhibiting activity in B16BL6 melanoma cells by the liposome compositions (lung colony count)
Type: in vivo, C57BL6/J mice
Details: lung surface colonies on 21st day; 0.2 mL oral once per day up to 6th day; B16BL6 cells i.v. 3×10^4/animal on 7th day
Description: Twenty 5-week old C57BL6/J mice were divided into four groups. The control group received 0.2 mL phosphate-buffered physiological saline (PBS) once per day by forced oral administration up to and including the 6th day of keeping. In like manner, the liposome composition of Example 1 was orally administered instead of the PBS to the group designated as the liposomized β-sitosterol group; an aqueous suspension of ordinary, unliposomized β-sitosterol (contained the same amount of β-sitosterol as the liposomized β-sitosterol administered to the liposomized β-sitosterol group) was orally administered instead of the PBS to the group designated as the β-sitosterol group; and the liposome composition of Comparative Example 1 was orally administered instead of the PBS to the group designated as the liposomized cholesterol group. B16BL6 melanoma cells suspended in serum-free medium were administered intravenously (3×10^4/0.2 ml/animal) on the 7th day of keeping. The mice were dissected on the 21st day of keeping and the lungs were extirpated; the lung surfaces were inspected and the number of colonies was counted.

## CC[C@H](CC[C@@H](C)[C@H]1CC[C@H]2[C@@H]3CC=C4C[C@@H](O)CC[C@]4(C)[C@H]3CC[C@]12C)C(C)C [β-Sitosterol, β-sitosterol]
  Average number of colonies: 43
